From patent US20260315431A1, “NANOMATERIAL ENCAPSULATED BIOFILM INHIBITORS FOR DENTAL CARIES TREATMENT” (THE UAB RESEARCH FOUNDATION, priority 2023, published 2026)
“Also recorded” adds a separate entry of the source. Marks after values point to notes of the source that are not given here.

Experiments:
S. sanguinis SK36 = assay: Commensal biofilm inhibition, S. sanguinis SK36 (crystal violet, OD562); format: cell-based, Streptococcus sanguinis; conditions: 25 μM
Protocol: The bacterial strains, S. mutans UA159, S. gordonii DL1, and S. sanguinis SK36 were inoculated statically at 37° C. under 5% CO2 in Todd Hewitt Broth (THB) for 24 h. The cultures were then diluted with fresh THB (1:5) and reinoculated until optical density at 470 nm (OD470) reached 1. The optical density was read using BioTek 800TS microplate reader at 470 nm for bacterial growth and 562 nm for biofilm stained with crystal violet. Data was plotted in Graphpad Prism9.
Biofilm inhibition assays. Biofilm inhibition assays were performed in polystyrene microtiter 96 well plates. […] After reading optical density for bacterial growth, the plate was gently washed with water, dried, and stained with crystal violet, and then gently rinsed again with deionized water leaving the stained biofilm at the bottoms of the wells. Biofilms was dissolved in 200 μL of 30% acetic acid and absorbance at 562 nm was used read to determine biofilm biomass. […] Biofilm inhibitory concentration (IC50) of the compounds was determined by serial dilutions.
All bacterial strains (S. mutans UA159, S. gordonii DL1, and S. sanguinis SK36) were inoculated statically at 37° C. under 5% CO2 environment in Todd Hewitt Broth (THB) for 24 h^[61]. […] The optical density was read using BioTek 800 TS absorbance reader at 470 nm for bacterial growth and 562 nm for biofilm stained with crystal violet. […]

S. mutans UA159 = assay: Gnotobiotic rat model of dental caries (HEBI / HA5 study, Example 1); format: in vivo, Fischer 344 rats infected with S. mutans UA159; parameters: key to Buccal Mean Caries Scores (±SEM) E / Buccal Mean Caries Scores (±SEM) Ds / Buccal Mean Caries Scores (±SEM) Dm / Buccal Mean Caries Scores (±SEM) Dx / Sulcal Mean Caries Scores (± SEM) E / Sulcal Mean Caries Scores (± SEM) Ds / Sulcal Mean Caries Scores (± SEM) Dm / Sulcal Mean Caries Scores (± SEM) Dx / Proximal Mean Caries Scores (± SEM) E: caries scores by the method of Keyes; conditions: for CFU/mL BAP: Blood Agar Plates; for CFU/mL BAP / CFU/mL MS / Buccal Mean Caries Scores (±SEM) Dx / Sulcal Mean Caries Scores (± SEM) Dx / Buccal Mean Caries Scores (±SEM) Dm / Sulcal Mean Caries Scores (± SEM) Dm / Buccal Mean Caries Scores (±SEM) Ds / Sulcal Mean Caries Scores (± SEM) Ds / Buccal Mean Caries Scores (±SEM) E / Proximal Mean Caries Scores (± SEM) E / Sulcal Mean Caries Scores (± SEM) E: 100 μM (NaF 250 ppm), 4 weeks; for CFU/mL MS: Mitis Salivarius agar; for Buccal Mean Caries Scores (±SEM) Dx / Sulcal Mean Caries Scores (± SEM) Dx: dentinal extensive; for Buccal Mean Caries Scores (±SEM) Dx / Sulcal Mean Caries Scores (± SEM) Dx / Buccal Mean Caries Scores (±SEM) Dm / Sulcal Mean Caries Scores (± SEM) Dm / Buccal Mean Caries Scores (±SEM) Ds / Sulcal Mean Caries Scores (± SEM) Ds / Buccal Mean Caries Scores (±SEM) E / Proximal Mean Caries Scores (± SEM) E / Sulcal Mean Caries Scores (± SEM) E: topical twice daily; for Buccal Mean Caries Scores (±SEM) Dm / Sulcal Mean Caries Scores (± SEM) Dm: dentinal moderate; for Buccal Mean Caries Scores (±SEM) Ds / Sulcal Mean Caries Scores (± SEM) Ds: dentinal slight; for Buccal Mean Caries Scores (±SEM) E / Proximal Mean Caries Scores (± SEM) E / Sulcal Mean Caries Scores (± SEM) E: enamel
Protocol: Reduction of S. mutans virulence in vivo by HA5 or HEBI. The effects of compound HA5 and HEBI on S. mutans virulence were evaluated using a well-established gnotobiotic rat model of dental caries 67. Hydrogel microparticles with no drug were used to ensure that the observed anti-virulence activity observed with HEBI was not related to the hydrogel material. The standard NaF (250 ppm) was included as a positive control. A (vehicle+infection only) group was included as a negative control. All rats in the experimental groups and control groups were colonized with S. mutans UA159. […] Similar reductions in caries scores were also observed in proximal enamel caries scores (Table 3). An evaluation of the effect of the treatment on proximal dentinal scores was unable to be performed as there were no significant proximal dentinal lesions for the control and treated groups in this study. […] The observed reduction in caries scores by HA5 and HEBI were similar with HEBI displaying slightly better in vivo activity, possibly due to the pH-dependent slow release. The observed reduction in caries scores by HA5 or HEBI is lower than the 250 ppm NaF treatment. However, it should be noted that the concentration of NaF (250 ppm=5.95 mM) is about 59-fold higher than HA5 (100 μM). At the end of the study, the animals were euthanized, their mandibles excised for microbiological analysis of plaque samples on MS agar plates and BAP and for scoring of caries by the method of Keyes^68 to determine the bacterial colonization. […] All in vivo experimental protocols were approved by the University of Alabama at Birmingham Institutional Animal Care and Use Committee (protocol No: IACUC-20047). The methods were carried out in accordance with the relevant guidelines and regulations.
Rat model of dental caries. In vivo studies of colonization and virulence of S. mutans were evaluated using a previously reported rat model of dental caries^71. Offspring of gnotobiotic Fischer 344 rats used in this experiment were bred and maintained in trexler isolators. Male and female rat pups were removed from isolators at 20 days of age and randomly assigned into 5 treatment groups of 5 rats/group in cages with filter tops. Rats were then infected with S. mutans UA159 strain by oral swabbing daily for four consecutive days with a fresh overnight culture of S. mutans UA159. Rats were provided with caries promoting Teklad Diet 305 containing […] (Harlan Laboratories, Inc., Indianapolis, IN) and sterile drinking water ad libitum. Oral swabs were taken 5 days post-infection and plated on Todd Hewitt (TH) agar plates and incubated at 37° C. in an environment of 5% CO2 in the air to confirm colonization. Rats were weighed at weaning and at the termination of the experiment. One-week post-infection, the molars of the rats were treated topically twice daily for 4 weeks with the test compounds using camel-hair brushes. The five treatment groups used in this study were: 1) HEBI (100 μM); 2) HA5 (100 μM); 3) hydrogel encapsulated PBS (no drug) containing 0.1% DMSO (negative control), 4) 250 ppm NaF (positive control) and 5) infected untreated group (negative control). Drinking water was withheld for 60 min following each treatment with the compound. Animals were weighed at weaning and at the termination of the experiment. On day 60, the rats were sacrificed using CO2 followed by cervical dislocation or bilateral thoracotomy. The mandibles were surgically removed and cleaned of excess tissue to assess the level of bacteria present and the extent of caries formation. The right mandibles from each rat were placed in a tube containing phosphate buffer (3 mL), placed on ice and sonicated (10 sec) to release bacteria from the molars. Each sample was serially diluted, plated on blood agar plates (BAP) and mitis-salivarius (MS) agar plates and incubated in an environment of 5% CO2 at 37° C. to quantify the level of total bacteria and S. mutans present in the plaque. […]

| SMILES | S. sanguinis biofilm (S. sanguinis SK36) | effect on bacterial colonization (S. mutans UA159; 4-week treatment, 100 μM) | reduction in caries scores (S. mutans UA159; 4-week treatment, 100 μM) | CFU/mL BAP (S. mutans UA159) | CFU/mL MS (S. mutans UA159) | Buccal Mean Caries Scores (±SEM) Dx (S. mutans UA159) | Sulcal Mean Caries Scores (± SEM) Dx (S. mutans UA159) | Buccal Mean Caries Scores (±SEM) Dm (S. mutans UA159) | Sulcal Mean Caries Scores (± SEM) Dm (S. mutans UA159) | Buccal Mean Caries Scores (±SEM) Ds (S. mutans UA159) | Sulcal Mean Caries Scores (± SEM) Ds (S. mutans UA159) | Buccal Mean Caries Scores (±SEM) E (S. mutans UA159) | Proximal Mean Caries Scores (± SEM) E (S. mutans UA159) | Sulcal Mean Caries Scores (± SEM) E (S. mutans UA159) |
| --- | --- | --- | --- | --- | --- | --- | --- | --- | --- | --- | --- | --- | --- | --- |
| O=C1/C(=C/c2cc(O)c(O)cc2O)Oc2ccccc21 [HA5, 2-[(2′,4′,5′-Trihydroxyphenyl)methylidene]-2,3-dihydro-1-benzofuran-3-one] | did not significantly reduce; also recorded: minimal | not significant; also recorded: without affecting the bacterial colonization significantly | significant reduction in buccal, sulcal, and proximal dental caries scores | 3.0 ± 1.0 CFU/mL (×10^6) | 2.5 ± 0.8 CFU/mL (×10^6) | 2.0 ± 0.7 | 4.4 ± 0.9 | 3.8 ± 0.2 | 8.8 ± 0.9 | 6.0 ± 0.4 | 16.2 ± 0.4 | 11.0 ± 0.3 | 4.0 ± 0.0 | 22.0 ± 0.6 |
| O=C1/C(=C/c2cc(O)c(O)c(O)c2)Oc2ccccc21 [HA6, 2-[(3′,4′,5′-Trihydroxyphenyl)methylidene]-2,3-dihydro-1-benzofuran-3-one] | did not significantly reduce the biofilms | – | – | – | – | – | – | – | – | – | – | – | – | – |
| [F-].[Na+] [NaF, reference compound] | – | – | – | 4.0 ± 0.9 CFU/mL (×10^6) | 3.4 ± 0.5 CFU/mL (×10^6) | 0.0 ± 0.0 | 1.0 ± 0.3 | 1.0 ± 0.8 | 4.6 ± 0.2 | 2.4 ± 0.8 | 11.2 ± 0.4 | 5.0 ± 0.7 | 1.2 ± 0.8 | 14.2 ± 0.7 |
